Each structure is given as a SMILES string. Like-named read-outs stand apart in the source and are kept apart here.

Among the data in US20180186742A1, “PICOLINAMIDES AS FUNGICIDES” (Dow AgroSciences LLC, priority 2017, published 2018) are pest or weed control values, retold here.

For one experiment, the system named is Zymoseptoria tritici. Kind of experiment: Leaf blotch of wheat (SEPTTR), disease control on wheat seedlings. The format is in vivo. The note with it: for pest or weed control at 100 ppm: high volume application at 100 ppm; for pest or weed control at 121.5 g/ha: low volume application at 121.5 g/H. As for the experimental part: Technical grades of materials were dissolved in acetone, which were then mixed with nine volumes of water containing 110 ppm Triton X-100. The fungicide solutions were applied onto wheat seedlings using an automated booth sprayer to run-off. All sprayed plants were allowed to air dry prior to further handling. All fungicides were evaluated using the aforementioned method for their activity vs. all target diseases, unless stated otherwise. Wheat leaf blotch and brown rust activity were also evaluated using track spray applications, in which case the fungicides were formulated as EC formulations, containing 0.1% Trycol 5941 in the spray solutions. Wheat plants (variety Yuma) were grown from seed in a greenhouse in 50% mineral soil/50% soil-less Metro mix until the first leaf was fully emerged, with 7-10 seedlings per pot. These plants were inoculated with an aqueous spore suspension of Zymoseptoria tritici either prior to or after fungicide treatments. After inoculation the plants were kept in 100% relative humidity (one day in a dark dew chamber followed by two to three days in a lighted dew chamber at 20° C.) to permit spores to germinate and infect the leaf. The plants were then transferred to a greenhouse set at 20° C. for disease to develop. When disease symptoms were fully expressed on the 1st leaves of untreated plants, infection levels were assessed on a scale of 0 to 100 percent disease severity. Percent disease control was calculated using the ratio of disease severity on treated plants relative to untreated plants.

The subject of the next experiment is Puccinia triticina. Put plainly: Wheat brown rust (PUCCRT), disease control on wheat seedlings. The format is in vivo. As to conditions: for pest or weed control at 100 ppm: high volume application at 100 ppm; for pest or weed control at 121.5 g/ha: low volume application at 121.5 g/H. As to the method: Technical grades of materials were dissolved in acetone, which were then mixed with nine volumes of water containing 110 ppm Triton X-100. The fungicide solutions were applied onto wheat seedlings using an automated booth sprayer to run-off. All sprayed plants were allowed to air dry prior to further handling. All fungicides were evaluated using the aforementioned method for their activity vs. all target diseases, unless stated otherwise. Wheat leaf blotch and brown rust activity were also evaluated using track spray applications, in which case the fungicides were formulated as EC formulations, containing 0.1% Trycol 5941 in the spray solutions. Wheat plants (variety Yuma) were grown from seed in a greenhouse in 50% mineral soil/50% soil-less Metro mix until the first leaf was fully emerged, with 7-10 seedlings per pot. These plants were inoculated with an aqueous spore suspension of Puccinia triticina either prior to or after fungicide treatments. After inoculation the plants were kept in a dark dew room at 22° C. with 100% relative humidity overnight to permit spores to germinate and infect the leaf. The plants were then transferred to a greenhouse set at 24° C. for disease to develop. Fungicide formulation, application and disease assessment followed the procedures as described in the Example A.

Where [1] appears, read: 24 h, 1 Day Protectant, read-out: SEPTTR disease control, 1DP, HV activity.
Where [2] appears, read: 72 h, 3 Day Curative, read-out: SEPTTR disease control, 3DC, HV activity.
[3] abbreviates: 24 h, 1 Day Protectant, read-out: PUCCRT disease control, 1DP, HV activity.
Setting [4] is: 72 h, 3 Day Curative, read-out: PUCCRT disease control, 3DC, HV activity.
[5] abbreviates: 24 h, 1 Day Protectant, read-out: SEPTTR disease control, 1DP, LV activity.
[6] abbreviates: 24 h, 1 Day Protectant, read-out: PUCCRT disease control, 1DP, LV activity.
[7] abbreviates: 72 h, 3 Day Curative, read-out: PUCCRT disease control, 3DC, LV activity.
Setting [8] is: 24 h, 1 Day Protectant, wheat leaf blotch, read-out: SEPTTR 1DP disease control, LV activity.
The mark [9] stands for this setting: 72 h, 3 Day Curative, wheat leaf blotch, read-out: SEPTTR 3DC disease control, LV activity.
The mark [10] stands for this setting: 24 h, 1 Day Protectant, wheat brown rust, read-out: PUCCRT 1DP disease control, LV activity.
[11] abbreviates: 72 h, 3 Day Curative, wheat brown rust, read-out: PUCCRT 3DC disease control, LV activity.
Where [12] appears, read: 72 h, 3 Day Curative, read-out: SEPTTR disease control, 3DC, LV activity.

With `COc1ccnc(C(=O)N[C@@H](C)C(=O)O[C@@H](C)[C@H](c2ccc(F)cc2C)C(C)C)c1O` [Compound 124], the pest or weed control at 100 ppm with Zymoseptoria tritici (setting [1]), in the experiment on Zymoseptoria tritici (setting [2]), in the experiment with Puccinia triticina (setting [3]) and with Puccinia triticina (setting [4]) was more than 80% in each case.
With `COc1ccnc(C(=O)N[C@@H](C)C(=O)O[C@@H](C)[C@H](c2ccc(OC(C)C)cc2)C(C)C)c1O` [Compound 336], the pest or weed control at 100 ppm is less than 80% with Zymoseptoria tritici (setting [1]), less than 80% in the experiment with Zymoseptoria tritici (setting [2]), more than 80% in the experiment on Puccinia triticina (setting [3]) and less than 80% with Puccinia triticina (setting [4]).
Take `COc1ccnc(C(=O)NCC(=O)O[C@@H](C)[C@H](c2ccc(F)cc2C)C(C)C)c1O` [Compound 317]: the pest or weed control at 100 ppm is less than 80% in the experiment on Zymoseptoria tritici (setting [1]), less than 80% with Zymoseptoria tritici (setting [2]), more than 80% with Puccinia triticina (setting [3]) and more than 80% in the experiment with Puccinia triticina (setting [4]).
Consider `COc1cc(F)ccc1[C@@H](C1CCC1)[C@H](C)OC(=O)[C@H](C)NC(=O)c1nccc(OC)c1O` [Compound 142], for which the pest or weed control at 100 ppm in the experiment with Zymoseptoria tritici (setting [1]) is less than 0%; in the experiment with Zymoseptoria tritici (setting [2]), less than 80%; in the experiment on Puccinia triticina (setting [3]), more than 80%; with Puccinia triticina (setting [4]), more than 80%.
Take `COc1ccc([C@H](C(C)C)[C@H](C)OC(=O)[C@H](C)NC(=O)c2nccc(OC)c2OCOC(C)=O)cc1F` [Compound 258]: the pest or weed control at 121.5 g/ha is less than 80% with Zymoseptoria tritici (setting [5]), more than 80% in the experiment with Puccinia triticina (setting [6]) and less than 80% with Puccinia triticina (setting [7]).
Turning to `COc1ccnc(C(=O)N[C@@H](C)C(=O)O[C@@H](C)[C@H](c2ccc3c(c2)OCO3)C(C)C)c1O` [Compound 334], the pest or weed control at 100 ppm is less than 80% in the experiment on Zymoseptoria tritici (setting [1]), less than 0% in the experiment with Zymoseptoria tritici (setting [2]), more than 80% with Puccinia triticina (setting [3]) and more than 80% in the experiment with Puccinia triticina (setting [4]).
For the molecule `COc1cc(C)ccc1[C@H](C(C)C)[C@H](C)OC(=O)[C@H](C)NC(=O)c1nccc(OC)c1OCOC(C)=O` [Compound 259], the pest or weed control at 121.5 g/ha in the experiment on Zymoseptoria tritici (setting [5]) is less than 80%; in the experiment on Puccinia triticina (setting [6]) it was more than 80%; in the experiment on Puccinia triticina (setting [7]), more than 80%.
As for `COc1ccnc(C(=O)N[C@@H](C)C(=O)O[C@@H](C)[C@@H](c2ccc(F)cc2F)C(C)C)c1O` [Compound 331], the pest or weed control at 100 ppm in the experiment on Zymoseptoria tritici (setting [1]), in the experiment on Zymoseptoria tritici (setting [2]), in the experiment with Puccinia triticina (setting [3]) and with Puccinia triticina (setting [4]) was less than 80% in each case.
Turning to `COc1ccnc(C(=O)N[C@@H](C)C(=O)O[C@@H](C)[C@@H](c2ccc(C)cc2C)C2CCCC2)c1O` [Compound 132], the pest or weed control at 100 ppm with Zymoseptoria tritici (setting [1]) is more than 80%; in the experiment on Zymoseptoria tritici (setting [2]), less than 80%; in the experiment with Puccinia triticina (setting [3]) it was more than 80%; in the experiment on Puccinia triticina (setting [4]), more than 80%.
`COCCC(=O)Oc1c(OC)ccnc1C(=O)N[C@@H](C)C(=O)O[C@@H](C)[C@H](c1ccc(F)c(C)c1)C(C)C` [Compound 246]: the pest or weed control at 121.5 g/ha in the experiment on Zymoseptoria tritici (setting [5]), in the experiment on Puccinia triticina (setting [6]) and with Puccinia triticina (setting [7]) was more than 80% in each case.
As for `CCC(CC)[C@@H](c1ccc(F)cc1C)[C@H](C)OC(=O)[C@H](C)NC(=O)c1nccc(OC)c1O` [Compound 125], the pest or weed control at 100 ppm with Zymoseptoria tritici (setting [1]) is more than 80%; in the experiment on Zymoseptoria tritici (setting [2]), more than 80%; with Puccinia triticina (setting [3]), more than 80%; in the experiment with Puccinia triticina (setting [4]), less than 80%.
Regarding `COc1ccnc(C(=O)N[C@@H](C)C(=O)O[C@@H](C)[C@H](c2cccc(C)c2C)C(C)C)c1O` [Compound 326], the pest or weed control at 100 ppm in the experiment on Zymoseptoria tritici (setting [1]) is less than 80%; in the experiment with Zymoseptoria tritici (setting [2]) it was more than 80%; in the experiment with Puccinia triticina (setting [3]), more than 80%; in the experiment on Puccinia triticina (setting [4]), more than 80%.
With `CCC(C)[C@H](c1ccc(F)cc1C)[C@H](C)OC(=O)[C@H](C)NC(=O)c1nccc(OC)c1O` (some centres unmarked) [Compound 120], the pest or weed control at 100 ppm in the experiment with Zymoseptoria tritici (setting [1]) is less than 0%; in the experiment on Zymoseptoria tritici (setting [2]), less than 80%; with Puccinia triticina (setting [3]), more than 80%; in the experiment on Puccinia triticina (setting [4]), less than 0%.
As for `COc1ccnc(C(=O)N[C@@H](C)C(=O)O[C@@H](C)[C@H](c2c(F)cc(F)cc2F)C(C)C)c1OC(C)=O` [Compound 388], the pest or weed control at 121.5 g/ha in the experiment with Zymoseptoria tritici (setting [8]), in the experiment with Zymoseptoria tritici (setting [9]), in the experiment with Puccinia triticina (setting [10]) and in the experiment with Puccinia triticina (setting [11]) was more than 80% in each case.
On to `COc1ccnc(C(=O)N[C@@H](C)C(=O)O[C@@H](C)[C@@H](c2ccccc2)C2CCCC2)c1OCOC(C)=O` [Compound 163], for which the pest or weed control at 121.5 g/ha in the experiment with Zymoseptoria tritici (setting [5]) was less than 80%; in the experiment with Zymoseptoria tritici (setting [12]), more than 80%; with Puccinia triticina (setting [6]), more than 80%; in the experiment with Puccinia triticina (setting [7]), less than 80%.
Regarding `CCC(C)[C@@H](c1ccc(F)cc1OC)[C@H](C)OC(=O)[C@H](C)NC(=O)c1nccc(OC)c1O` (some centres unmarked) [Compound 146], the pest or weed control at 100 ppm in the experiment on Zymoseptoria tritici (setting [1]) was less than 80%; in the experiment with Zymoseptoria tritici (setting [2]) it was more than 80%; with Puccinia triticina (setting [3]) it was more than 80%; with Puccinia triticina (setting [4]), more than 80%.
`COc1ccnc(C(=O)N[C@@H](C)C(=O)O[C@@H](C)[C@@H](c2ccc(F)cc2C)C(C)C)c1O` [Compound 116]: the pest or weed control at 100 ppm in the experiment with Zymoseptoria tritici (setting [1]) was less than 0%; in the experiment on Zymoseptoria tritici (setting [2]), less than 80%; in the experiment with Puccinia triticina (setting [3]), more than 80%; in the experiment on Puccinia triticina (setting [4]), less than 0%.
`COc1ccnc(C(=S)N[C@@H](C)C(=O)OC(C)[C@H](c2ccccc2)C2CCCC2)c1O` (some centres unmarked) [Compound 114]: the pest or weed control at 100 ppm in the experiment on Zymoseptoria tritici (setting [1]) was more than 80%; in the experiment on Zymoseptoria tritici (setting [2]), less than 80%; in the experiment on Puccinia triticina (setting [3]) it was more than 80%; in the experiment with Puccinia triticina (setting [4]), less than 80%.
Turning to `COc1cc(F)ccc1[C@H](C1CCC1)[C@H](C)OC(=O)[C@H](C)NC(=O)c1nccc(OC)c1O` [Compound 147], the pest or weed control at 100 ppm in the experiment on Zymoseptoria tritici (setting [1]) is less than 0%; in the experiment on Zymoseptoria tritici (setting [2]), less than 80%; in the experiment on Puccinia triticina (setting [3]) it was more than 80%; with Puccinia triticina (setting [4]), more than 80%.
In the case of `COc1ccc([C@H](C(C)C)[C@H](C)OC(=O)[C@H](C)NC(=O)c2nccc(OC)c2OCOC(C)=O)c(OC)c1` [Compound 264], the pest or weed control at 121.5 g/ha in the experiment with Zymoseptoria tritici (setting [5]) was less than 80%; with Zymoseptoria tritici (setting [12]), less than 80%; in the experiment on Puccinia triticina (setting [6]) it was more than 80%; in the experiment on Puccinia triticina (setting [7]), more than 80%.
`COc1ccnc(C(=O)N[C@@H](C)C(=O)O[C@@H](C)[C@H](c2ccc(Cl)cc2Cl)C(C)C)c1O` [Compound 330]: the pest or weed control at 100 ppm in the experiment on Zymoseptoria tritici (setting [1]) was less than 80%; in the experiment with Zymoseptoria tritici (setting [2]) it was less than 80%; in the experiment with Puccinia triticina (setting [3]) it was more than 80%; in the experiment with Puccinia triticina (setting [4]), more than 80%.
As for `COc1cc(F)ccc1[C@H](C1CCCC1)[C@H](C)OC(=O)[C@H](C)NC(=O)c1nccc(OC)c1O` [Compound 144], the pest or weed control at 100 ppm is less than 80% with Zymoseptoria tritici (setting [1]), more than 80% with Zymoseptoria tritici (setting [2]), more than 80% in the experiment with Puccinia triticina (setting [3]) and more than 80% in the experiment on Puccinia triticina (setting [4]).
With `CCC(C)[C@@H](c1ccccc1C)[C@H](C)OC(=O)[C@H](C)NC(=O)c1nccc(OC)c1OC(=O)C(C)C` (some centres unmarked) [Compound 386], the pest or weed control at 121.5 g/ha in the experiment on Zymoseptoria tritici (setting [8]) was less than 80%; in the experiment with Zymoseptoria tritici (setting [9]), more than 80%; in the experiment with Puccinia triticina (setting [10]), more than 80%; in the experiment with Puccinia triticina (setting [11]), more than 80%.
